Experimental data: US7691563B2, “Method for alleviating pain using sphingosine-1-phosphate and related compounds, and assays for identifying such compounds” (Sanofi-Aventis Pharma GmbH, priority 2003, dated 2010)
“And” between values parts separate entries of the source, which are not always exact repeats. Equal values may be shown once.

Tests used:
[1] = test system: adenylyl cyclase (AC); experiment: AC activity of HeLa cell lysates after treatment of cells; format: cell-based, human; settings: for effect on serum-induced inhibition of Gαs- and forskolin-stimulated AC activity: HeLa cells transfected with ODN (3 μM), 30 minutes 10% FBS; for effect of pre-treatment on S1P inhibition of Gαs-stimulated AC activity: HeLa cells, 0.5 μM S1P, PTX 1 μg/μl 24 hours, inhibitors 10 μM 20 minutes, ODN 3 μM, 60 minutes S1P
Experimental: Panel B: Adenylyl cyclase activity of HeLa cell lysates was measured in the absence and presence of serum as described in Materials and Methods section. The Gsα* (80 nM; grey bars)- and forskolin (100 μM; black bars)-stimulated specific activities of ACV were 124±10 pmol/mg/min and 464±89 pmol/min/mg, respectively. The basal activity was 11.75±2 pmol/mg/min. The mean ±SE of at least 2 experiments each done in triplicates is shown. Student T test: *p<0.001.
Panel E: Serum-starved HeLa cells were treated with sense, antisense, and 3M-as ODNs as described above. After 24 hours the cells were incubated for 30 minutes with 10% FBS. Cells were harvested and AC activity in presence of Gαs* (80 nM; grey bars) and forskolin (100 μM; black bars) was determined as described above. Data from at least 3 experiments measured in triplicates are presented as the mean±SEM. Student T test: *p<0.01, **p<0.05.
Panel B: Serum-starved HeLa cells were treated for varying times with 0.5 μM S1P. Cells were harvested and AC activity in presence of 80 nM Gαs* was determined as described in Material and Methods. Data from at least 4 experiments measured in triplicates are presented as the mean ±SE.
Panel C: Serum-starved HeLa cells were treated with sense, antisense, and 3M-as ODNs as described in the Materials and Methods section. After 24 hours the cells were incubated for the indicated times with 0.5 μM S1P. Cells were harvested and AC activity in presence of Gαs* (80 nM) was determined as described above. Data are presented as the mean ±SEM of three determinations.
Panel A: Serum-starved HeLa cells were treated with 0.5 μM S1P for 3 (grey bars) or 60 (black bars) minutes. Prior incubation with S1P the cells were incubated for 24 hours with […] pertussis toxin (PTX). AC activity in was determined presence of 80 nM Gαs*. Data from at least 2 experiments measured in triplicates are presented as the mean ±SE.
Panel B: Serum-starved HeLa cells were treated with 0.5 μM S1P. Prior incubation with S1P the cells were incubated for 20 minutes with 10 μM U73122, R031-8220, BAPTA-AM or U0126. AC activity in was determined presence of 80 nM Gαs*. Data from at least 2 experiments measured in triplicates are presented as the mean ±SE.
Spinal cords were lysed in 25 mM Hepes, pH 7.4, 1 mM EGTA and cell membranes were prepared as described by Kassis and Fishman. Aliquots were stored at −80° C. until use. AC activity assays were performed in a volume of 100 μl for 15 min at room temperature in the presence of 100 μM MgCl2 as previously described (Patel et al., 2002). Gsα* (80 nM) or forskolin (100 μM) were used to stimulate AC enzyme activity in membranes (10 μg protein).
The sequences of the oligodeoxynucleotides (ODNs) were chosen as published previously (Scholich et al., 2001). Sense: 5′-CTGTTCATGCCGGTT-3′, antisense: 5′-AACCGGCATGAACAG-3′, and antisense ODN harboring three mutations (3M-as; mutations are underlined): 5′-AATCCGTATGAACAC-3′. HeLa-cells were plated on 35 mm dishes (300,000 cells) and grown in DMEM medium (Gibco, Karlsruhe, Germany) containing 10% FBS and 1% penicillin/streptoMycin for 24 hours. The ODNs (3 μM each) were introduced into the cells by transfections using Tfx20 (Promega, Madison, Wis.) in 1 ml serum-free medium according to the instructions of the manufacturer. Two hours later, 1 ml DMEM (Gibco, Karlsruhe, Germany) containing 10% FBS was added. The cells were then incubated for 6 hours. Then the medium was exchanged against serum-free DMEM (Gibco, Karlsruhe, Germany), followed by an incubation for 16 hours in serum-free DMEM (Gibco, Karlsruhe, Germany) before being treated with 10% serum or […] S1P. The cells were then used for Western blots by adding boiling 1× Laemmli buffer or they were havested for AC activity assays as described above.

[2] = test system: PAM; experiment: PAM translocation to the plasma membrane in HeLa cells (immunofluorescence); format: cell-based, human; settings: HeLa cells, 0.5 μM S1P; PTX 1 μg/μl 24 hours; GF109203X 1 μM, others 10 μM, 20 minutes
Experimental: Panel B: HeLa cells were treated with 10% fetal bovine serum for different times and stained with anti-PAM antibodies to monitor the subcellular localization.
Panel B: HeLa cells were treated with 0.5 μM S1P for 30 minutes and stained with anti-PAM antibodies to monitor the subcellular localization.
Panel C: Time dependence of PAM translocation in HeLa cells. Serum-starved HeLa cells were treated with 0.5 μM S1P for different times and stained with anti-PAM antibodies to monitor the subcellular localization.
Panel D: HeLa cells were treated with 0.5 μM S1P for 20 minutes and stained with anti-PAM antibodies to monitor the subcellular localization. Prior S1P-treatment were the cells incubated for 24 hours with […] pertussis toxin (PTX), for 20 minutes with, 1 μM GF109203X, 10 μM U0126, BAPTA-AM, U73122 or Ro31-223.
To monitor distribution of PAM in HeLa cells, cells were grown on glass coverslips in DMEM with 10% FBS and 1% penicillin/streptoMycin (Gibco, Karlsruhe, Germany). To visualize translocation of PAM HeLa, cells were serum starved overnight and subsequently treated with 10% serum for 2 hours. Wherever indicated, cells were preincubated for 30 minutes in the presence of different concentrations of inhibitors. The cells were fixed in 4% paraformaldehyde (Sigma, Taufkirchen, Germany) in PBS for 10 minutes and then permeablized in 0.1% Triton X-100 for another 5 minutes. The coverslips were blocked for 1 hour in 3% BSA in PBS and then incubated for 1 hour with anti-PAM antibody (1:50 dilution). This was followed by incubation with FITC-labeled goat anti-rabbit antibody in PBS containing 3% BSA. The cells were then washed with PBS and mounted. For the analysis confocal (BioRad, Hercules, Calif.) and regular flourescence microscopes (Nikon, Duesseldorf, Germany) were used.

[3] = test system: adenylyl cyclase (AC); experiment: AC activity assay, purified PAM added to spinal cord or DRG lysates; format: biochemical, rat; settings: 30 nM PAM
Experimental: Panel B: Lysates of spinal cords or DRG (10 μg) were assayed for AC activity in the presence of 80 nM Gαs as described in Material and Methods. The mean ±SEM of at least 3 determinations done in triplicates is shown.
PAM purification was performed with some modifications as published previously (Scholich et al. 2001). Shortly, HeLa cells were grown in DMEM medium with 10% fetal bovine serum and 1% penicillin/streptoMycin. Confluent cells of forty 150 mm dishes were harvested with 1×PBS, 1 mM EDTA and pelleted for 5 minutes at 400×g. The cells were resuspended in TED buffer (50 mM Tris-HCl, pH 8.0, 1 mM EDTA, 1 mM DTT) containing 125 mM NaCl, 20 μg/ml of aprotinin, 20 μg/ml leupeptin, 1 mM benzamidine, 5 μg/ml soybean trypsin inhibitor and lysed by 2×5 seconds of sonication. The homogenate was centrifuged at 27000×g for 30 min at 4° C., and the supernatant was loaded on a Q-Sepharose XK16 column (Amersham, Pharmacia, Piscataway, N.J.) and eluted with a gradient of 150-350 mM NaCl in TED according to instructions of the manufacturer. The fractions were analyzed by Western blotting according to standard procedures; positive fractions were pooled and the NaCl concentration adjusted to 1 M. The protein was then loaded on a Phenyl-Sepharose XK16 column (Amersham, Pharmacia, Piscataway, N.J.) and washed with 300 mM NaCl in TED according to instructions of the manufacturer. The flow through and wash fractions contained PAM. They were pooled and the buffer exchanged for the aforementioned TED buffer containing 100 mM NaCl using Centricon 50 (Amicon, Beverly, Mass.) according to the manufacturer's instructions. The protein was then loaded on a MonoS 5/5 FPLC column (Amersham, Pharmacia, Piscataway, N.J.) and washed with the loading buffer (100 mM NaCl in TED) according to instructions of the manufacturer. The flow through was collected and applied to a Mono Q 5/5 FPLC column (Amersham, Pharmacia, Piscataway, N.J.). The protein was eluted with a gradient from 150-400 mM NaCl in TED. […]

Molecule	effect of pre-treatment on S1P-induced PAM translocation [2]	effect of pre-treatment on S1P inhibition of Gαs-stimulated AC activity [1]	further results
3M-as: antisense ODN harboring three mutations, HeLa cells, 5′-AATCCGTATGAACAC-3′ (DNA, backbone and methylation of C not given here)			effect on serum-induced inhibition of Gαs- and forskolin-stimulated AC activity [1]: no influence
CC(=O)OCOC(=O)CN(CC(=O)OCOC(C)=O)c1ccccc1OCCOc1ccccc1N(CC(=O)OCOC(C)=O)CC(=O)OCOC(C)=O [BAPTA-AM, reference compound]	did not interfere		
CN(C)CCCn1cc(C2=C(c3c[nH]c4ccccc34)C(=O)NC2=O)c2ccccc21 [GF109203X, reference compound]	eliminated		
Cn1cc(C2=C(c3cn(CCCSC(=N)N)c4ccccc34)C(=O)NC2=O)c2ccccc21 [RO 31-8220]		eliminated	
COc1ccc2c(c1)CC[C@@H]1[C@@H]2CC[C@]2(C)[C@@H](NCCCCCCN3C(=O)C=CC3=O)CC[C@@H]12 [U73122, reference compound]	abolished	abolished	
C=C[C@@]1(C)CC(=O)[C@]2(O)[C@@]3(C)[C@@H](O)CCC(C)(C)[C@@H]3[C@H](O)[C@H](OC(C)=O)[C@@]2(C)O1 [forskolin]			forskolin-stimulated specific activity of AC ([1]; HeLa cell lysates, 100 μM forskolin): 464 ± 89 pmol/min/mg
PAM: Protein Associated with Myc, giant protein of 510 kDa, full length purified from HeLa cells			decrease of Gαs-stimulated AC activity ([3]; DRG lysates): 32%; inhibition of Gαs-stimulated AC activity ([3]; spinal cord lysates of animals treated for 1 hour with formalin): 25%; decrease of Gαs-stimulated AC activity ([3]; spinal cord lysates of control animals): 50% and 49%
Pertussis toxin [reference compound]	eliminated	eliminated	
sense ODN: sense ODN used in HeLa cells, 5′-CTGTTCATGCCGGTT-3′ (DNA, backbone and methylation of C not given here)			effect on serum-induced inhibition of Gαs- and forskolin-stimulated AC activity [1]: no influence
